Experimental data: paper PMC9952215, “Giving a Hand: Synthetic Peptides Boost the Antifungal Activity of Itraconazole against Cryptococcus neoformans” (Antibiotics, 2023)
≈ marks a conversion by molar mass, not a printed value.

Assays:
C. neoformans cells [1] = assay: Cell membrane integrity / membrane pore formation (propidium iodide uptake, fluorescence microscopy, ImageJ counting); format: cell-based, Cryptococcus neoformans
Method: The cell membrane integrity of C. neoformans was evaluated as described in [7]. After incubation for 24 h, as described above, the samples were washed three times with sterile 0.15 M NaCl and centrifuged (5000× g 5 min at 4 °C) to remove the YPD medium. Then, the cells were incubated with propidium iodide (PI) for 30 min in the dark at room temperature (22 °C ± 2). Next, they were washed and centrifuged twice, under the same conditions as previously mentioned. […] The fluorescent C. neoformans cells were counted using ImageJ software using the Cell Counter plugin, according to the methodology described by Aguiar et al. […] The cells were counted in the bright and fluorescent field of the same picture. Cells presenting fluorescence were called positive cells, and those without fluorescence were called negative cells. […] The cells were calculated using the equation: number of positive cells × 100/number of cells in the bright field. The number of negative cells was calculated following the equation: number of cells in the bright field—number of positive cells. Three different images were used to count the cells.

C. neoformans cells [2] = assay: Overproduction of reactive oxygen species (DCFH-DA, fluorescence microscopy, ImageJ counting); format: cell-based, Cryptococcus neoformans
Method: The ROS overproduction was evaluated according to the method Dias et al.. After incubation for 24 h, as described above, the samples were washed three times with sterile 0.15 M NaCl and centrifuged (5000× g 5 min at 4 °C) to remove the YPD medium. The analysis was conducted, as described, by PI assay. Next, 9 μL of 2',7' […] diacetate-DCFH-DA (Sigma, St. Louis, MI, USA)-was added and incubated in the dark for 30 min at room temperature (22 °C ± 2). Next, they were washed and centrifuged twice under the same conditions as those mentioned above. Then, the cryptococcal cells were observed under a fluorescence microscope (Olympus System BX 41, Tokyo, Japan), with an excitation wavelength of 488 nm and an emission wavelength of 525 nm. The fluorescent C. neoformans cells were counted using ImageJ software using the Cell Counter plugin, according to the methodology described by Aguiar et al.. The cells were counted in the bright and fluorescent field of the same picture. Cells presenting fluorescence were called positive cells, and those without fluorescence were called negative cells. […] The cells were calculated using the equation: number of positive cells × 100/number of cells in the bright field. The number of negative cells was calculated following the equation: number of cells in the bright field-number of positive cells. Three different images were used to count the cells.

C. neoformans [3] = conditions: cited from earlier work; for MIC50 against C. neoformans, alone / concentration in the combination of ibuprofen and ITR: ref 17 (Rocha et al.); for concentration in the combination of ibuprofen and ITR: ibuprofen combined with ITR
Excerpt: For example, […] et al. reported the combined activity against C. neoformans of the aminoglycoside K20 with ITR. […] In contrast, when combined, the concentration to reach the same activity decreases to 187 and 1 for K20 and ITR [16]. In another study, Rocha et al. evaluated the synergistic effect between ibuprofen and ITR against C. neoformans. […] However, the co ...

[4] = system: C. neoformans (ATCC 32045); assay: Combined antifungal activity (growth inhibition, absorbance 600 nm); format: cell-based, Cryptococcus neoformans; conditions: YPD, 10^6 cells mL^−1, 24 h, 30 °C, A600, mean ± SD
Method: The combined antifungal activity was evaluated as described in [11]. The combinations with SAMPs and itraconazole were constituted of peptides MIC50 [7] + itraconazole (ITR) 500 (1×) µg mL^−1, peptides [5×D] + ITR [1×D], peptides [10×D] + ITR [5×D], and peptides [10×D] + ITR [10×D]. The cells were grown on YPD agar for […], and cryptococcal cells were then resuspended in YPD medium and standardized at 10^6 cells mL^−1. The assay was performed in 96-well plates and incubated for 24 h at 30 °C. Then, the absorbance was measured at 600 nm using an automated microplate reader (Epoch, Biotek, Santa Clara, CA, USA). The best combinations were used to study the mechanisms of action. […] Experiments were performed in three biological replications, and each biological replication was performed with three technical replicates. The statistical analyses were performed using GraphPad Prism (version 5.01) for Microsoft Windows. All data obtained in the assays were compared using standard deviation and the one-way analysis of variance (ANOVA), followed by the Tukey test (p < 0.05).

C. neoformans [5] = system: C. neoformans; design: method as in earlier work; conditions: previously defined; ref 7 (Aguiar et al.); cited from earlier work

SMILES | positive PI-fluorescent cells (C. neoformans cells [1]; ITR alone (dilution not given; ITR 1× in Figure 1 text), ImageJ count of three images) [%] | membrane pore formation (PI red fluorescence), qualitative (C. neoformans cells [1]; single agent at 1×, fluorescence images, Figure 1) | DCFH-DA-fluorescent cells (C. neoformans cells [2]; ITR alone (dilution not stated), ImageJ count of three images) [%] | ROS accumulation (DCFH-DA fluorescence), qualitative (C. neoformans cells [2]; ITR alone, fluorescence images, Figure 2) | concentration to reach the same activity when combined (C. neoformans [3]; K20 combined with ITR, unit not given, ref 16 (Shrestha et al.)) | concentration presenting activity against C. neoformans, alone (C. neoformans [3]; agent alone, ref 16 (Shrestha et al.)) [µg/mL] | MIC50 against C. neoformans, alone (C. neoformans [3]; agent alone) [µg/mL] | concentration in the combination of ibuprofen and ITR (C. neoformans [3]) [µg/mL] | % of Inhibition of C. neoformans Growth ([4]; single agent at 1× (ITR 500; Mo-CBP3-PepII 25; RcAlb-PepII, RcAlb-PepIII, PepGAT, PepKAA 0.04 µg mL^−1)) [%] | % of Inhibition of C. neoformans Growth ([4]; single agent at 5×D (ITR 100; Mo-CBP3-PepII 5; other peptides 0.008 µg mL^−1)) [%] | % of Inhibition of C. neoformans Growth ([4]; single agent at 10×D (ITR 50; Mo-CBP3-PepII 2.5; other peptides 0.004 µg mL^−1)) [%] | MIC50 against C. neoformans (C. neoformans [5]) [µg/mL]
CCC(C)n1ncn(-c2ccc(N3CCN(c4ccc(OCC5COC(Cn6cncn6)(c6ccc(Cl)cc6Cl)O5)cc4)CC3)cc2)c1=O (centres unmarked) [ITR, itraconazole] | 0 | no red fluorescence | 0 | no ROS accumulation | 1 | 780 | 500 | 125 | 45.3 ± 0.021 | 12.2 ± 0.003 | 0 | 500 (≈ 709 µM)
CC(C)Cc1ccc(C(C)C(=O)O)cc1 (centres unmarked) [ibuprofen] | – | – | – | – | – | – | 512 | 16 | – | – | – | –
